# According to patent publication US12610948B2, “Choline chloride adjuvant for fatty acid based biopesticide” (Stratacor, Inc., priority 2020, dated 2026):
# What was measured:
# [1] = tested on: stable flies (Stomoxys calcitrans); experiment: Laboratory Petri dish filter paper incapacitation test, stable flies; assay type: in vivo; conditions: 1 ml on 9 cm filter paper in Petri dish
# From the text: (§1) Mixed sex stable flies (Stomoxys calcitrans) were obtained as pupae from a colony at the University of Nebraska West Central Research and Extension Center, North Platte, Nebraska. Mixed sex horn flies (Haematobia irritans), sensitive and knockdown resistant (Kdr), were obtained as pupae from a colony at The Center for Animal Health and Food Safety, New Mexico State University, Las Cruces, New Mexico. Adult horn and stable flies were allowed to emerge in 1 cubic foot cages at approximately 80 degrees Fahrenheit and were maintained on citrated whole blood (Quad Five, Rygate, Montana). Mixed sex house flies (Musca domestica) were obtained as pupae from Carolina Biological, Charlotte, North Carolina Adults were allowed to emerge in 1 cubic foot cages at approximately 80 degrees Fahrenheit and were maintained on water and sugar cubes. Mixed sex German cockroaches (Blattella germanica) were obtained as adults from Carolina Biological. Prior to use, roaches were kept with the supplied food source in paper towels contained in 1 cubic foot cages. Flies were used 4-6 days post emergence.
# (§2) An aqueous emulsion of the octanoic/decanoic acid mix (C8C10) was prepared by addition to an aqueous solution of the sodium salts of the fatty acids, prepared by mixing equal molar amounts of sodium hydroxide and fatty acid.
# [2] = tested on: German cockroaches (Blattella germanica); experiment: Laboratory Petri dish incapacitation test, German cockroaches; assay type: in vivo; conditions: aqueous emulsion, 6 roaches per dish
# From the text: as §1, §2
# [3] = tested on: house flies (Musca domestica); experiment: Laboratory Petri dish incapacitation test, house flies; assay type: in vivo; conditions: aqueous emulsion, N = 3-4
# From the text: as §1, §2
# [4] = tested on: Knockdown Resistant (Kdr) Horn Fly (Haematobia irritans); experiment: Laboratory Petri dish incapacitation test, knockdown resistant (Kdr) horn flies; assay type: in vivo; conditions: C8C10 organic aqueous emulsion, Kdr strain
# From the text: as §1, §2
# [5] = tested on: Sensitive Horn Fly (Haematobia irritans); experiment: Laboratory Petri dish incapacitation test, sensitive horn flies; assay type: in vivo; conditions: C8C10 organic aqueous emulsion, sensitive strain
# From the text: as §1, §2
# insect = conditions: 1% choline chloride in distilled water
# From the text: However, several factors (e.g., volatility, skin penetration, odor, irritation of the skin, eyes, and respiratory passages, leaf wilt, incapacitation reversibility, etc.) inherent to fatty acids may limit their practical use for certain applications as a biopesticide, especially when used at a high dosage.
# acetylcholine receptors = conditions: scale where acetylcholine is 100; Keyl et al., 1957; cited from earlier work
# [6] = assay type: in vitro ADME
# From the text: The C8910 fatty acids are volatile (Reifenrath, 2015b), and 24-61% of the applied dose evaporated exponentially from clay formulation applied to skin. Skin penetration will also limit duration for dermal treatments (e.g., about 50-75% of the applied dose of octanoic and decanoic acid penetrated cattle skin from mineral oil). To provide finer control of these modes of loss, the development of longer lasting controlled-release formulations (clay nanotubes, disintegrating granules, and microcapsules) for use as premises spray and direct skin application for protecting cattle against biting flies and ticks was investigated (Reifenrath, 2015c), with none of the carriers showing an extended duration. Since that time, however, it has been shown that an aqueous dilution (to 1% C8910) of an emulsifiable concentrate could achieve a similar duration of effectiveness (2-3 days after a single treatment) as the 15% oil formulation. […] The limited duration of such a formulation can be overcome by more frequent application (e.g. walk-through sprayers).
compound,measurement,setting,value
"C[N+](C)(C)CCO.[Cl-] [Choline Chloride, 1.0%, Choline chloride]","% Incapacitation at 24 h (Mean +/− S.D., N = 3)",[1],4 +/− 3%
same,"% Incapacitation at 24 h (Mean +/− S.D., N = 3)",[2],0 +/− 0%
same,"% Incapacitation at 24 h (Mean +/− S.D., N = 3)",[2]; listed as choline chloride,no effect
same,% Incapacitation at 24 h (Mean +/− S.D.),[3],0 +/− 0%
same,"% Incapacitation at 24 h (Mean +/− S.D., N = 3), Kdr",[4],2 +/− 4%
same,"% Incapacitation at 24 h (Mean +/− S.D., N = 3), Sensitive",[5],0 +/− 0%
same,insecticidal effect,insect,little or no insecticidal effect
CCCC(=O)OCC[N+](C)(C)C [Formulation C4],relative potency,acetylcholine receptors,100
CCCCC(=O)OCC[N+](C)(C)C [Formulation C5],relative potency,acetylcholine receptors,54
CCCCCC(=O)OCC[N+](C)(C)C [Formulation C6],relative potency,acetylcholine receptors,20
CCCCCCCCCC(=O)O [decanoic acid],applied dose penetrated cattle skin,[6],50-75%
CCCCCCCC(=O)O [octanoic acid],applied dose penetrated cattle skin,[6],50-75%
